Reference: ChEMBL document CHEMBL4627344, “Synthesis, biological evaluation and virtual screening of some acridone derivatives as potential anticancer agents” (2020)

What was measured:
Format in all cases: functional
SNB-19 = test: Antiproliferative activity against human SNB19 cells assessed as inhibition of cell growth measured after 48 hrs by SRB assay; conditions: SNB-19, 48 h
K562 = test: Antiproliferative activity against human K562 cells assessed as inhibition of cell growth measured after 48 hrs by SRB assay; conditions: K562, 48 h
IGROV-1 = test: Antiproliferative activity against human IGROV1 cells assessed as inhibition of cell growth at 10 uM measured after 48 hrs by SRB assay relative to control; conditions: IGROV-1, 48 h, read-out: GI
MOLT-4 [1] = test: Antiproliferative activity against human MOLT4 cells assessed as inhibition of cell growth at 10 uM measured after 48 hrs by SRB assay relative to control; conditions: MOLT-4, 48 h, read-out: GI
HCT-15 = test: Antiproliferative activity against human HCT15 cells assessed as inhibition of cell growth at 10 uM measured after 48 hrs by SRB assay relative to control; conditions: HCT-15, 48 h, read-out: GI
M14 = test: Antiproliferative activity against human M14 cells assessed as inhibition of cell growth measured after 48 hrs by SRB assay; conditions: M14, 48 h
SW-620 = test: Antiproliferative activity against human SW620 cells assessed as inhibition of cell growth at 10 uM measured after 48 hrs by SRB assay relative to control; conditions: SW-620, 48 h, read-out: GI
EKVX = test: Antiproliferative activity against human EKVX cells assessed as inhibition of cell growth measured after 48 hrs by SRB assay
SR = test: Antiproliferative activity against human SR cells assessed as inhibition of cell growth at 10 uM measured after 48 hrs by SRB assay relative to control; conditions: read-out: GI
MCF7 = test: Antiproliferative activity against human MCF7 cells assessed as inhibition of cell growth measured after 48 hrs by SRB assay; conditions: MCF7, 48 h
MDA-MB-435 = test: Antiproliferative activity against human MDA-MB-435 cells assessed as inhibition of cell growth measured after 48 hrs by SRB assay; conditions: MDA-MB-435, 48 h
BT-549 = test: Antiproliferative activity against human BT549 cells assessed as inhibition of cell growth measured after 48 hrs by SRB assay; conditions: BT-549, 48 h
ACHN = test: Antiproliferative activity against human ACHN cells assessed as inhibition of cell growth at 10 uM measured after 48 hrs by SRB assay relative to control; conditions: read-out: GI
OVCAR-3 = test: Antiproliferative activity against human OVCAR3 cells assessed as inhibition of cell growth at 10 uM measured after 48 hrs by SRB assay relative to control; conditions: OVCAR-3, 48 h, read-out: GI
SN12C = test: Antiproliferative activity against human SN12C cells assessed as inhibition of cell growth at 10 uM measured after 48 hrs by SRB assay relative to control; conditions: read-out: GI
NCI-H23 = test: Antiproliferative activity against human NCI-H23 cells assessed as inhibition of cell growth measured after 48 hrs by SRB assay; conditions: NCI-H23, 48 h
SK-MEL-5 = test: Antiproliferative activity against human SK-MEL-5 cells assessed as inhibition of cell growth measured after 48 hrs by SRB assay; conditions: SK-MEL-5, 48 h
KM12 = test: Antiproliferative activity against human KM12 cells assessed as inhibition of cell growth at 10 uM measured after 48 hrs by SRB assay relative to control; conditions: KM12, 48 h, read-out: GI
786-0 = test: Antiproliferative activity against human 786-0 cells assessed as inhibition of cell growth measured after 48 hrs by SRB assay; conditions: 786-0, 48 h
NCI-H522 [2] = test: Antiproliferative activity against human NCI-H522 cells assessed as inhibition of cell growth at 10 uM measured after 48 hrs by SRB assay relative to control; conditions: NCI-H522, 48 h, read-out: GI
A549 = test: Antiproliferative activity against human A549 cells assessed as inhibition of cell growth at 10 uM measured after 48 hrs by SRB assay relative to control; conditions: A549, 48 h, read-out: GI
SF-295 = test: Antiproliferative activity against human SF295 cells assessed as inhibition of cell growth at 10 uM measured after 48 hrs by SRB assay relative to control; conditions: SF-295, 48 h, read-out: GI
DU-145 = test: Antiproliferative activity against human DU145 cells assessed as inhibition of cell growth at 10 uM measured after 48 hrs by SRB assay relative to control; conditions: DU-145, 48 h, read-out: GI
NCI-H322M = test: Antiproliferative activity against human NCI-H322M cells assessed as inhibition of cell growth measured after 48 hrs by SRB assay
LOX IMVI = test: Antiproliferative activity against human LOXIMVI cells assessed as inhibition of cell growth measured after 48 hrs by SRB assay
COLO 205 = test: Antiproliferative activity against human COLO205 cells assessed as inhibition of cell growth at 10 uM measured after 48 hrs by SRB assay relative to control; conditions: COLO 205, 48 h, read-out: GI
HT-29 = test: Antiproliferative activity against human HT-29 cells assessed as inhibition of cell growth measured after 48 hrs by SRB assay; conditions: HT-29, 48 h
PC-3 = test: Antiproliferative activity against human PC3 cells assessed as inhibition of cell growth measured after 48 hrs by SRB assay; conditions: PC-3, 48 h
SNB-75 = test: Antiproliferative activity against human SNB75 cells assessed as inhibition of cell growth at 10 uM measured after 48 hrs by SRB assay relative to control; conditions: SNB-75, 48 h, read-out: GI
NCI-H460 = test: Antiproliferative activity against human NCI-H460 cells assessed as inhibition of cell growth measured after 48 hrs by SRB assay; conditions: NCI-H460, 48 h
HOP-62 = test: Antiproliferative activity against human HOP62 cells assessed as inhibition of cell growth measured after 48 hrs by SRB assay; conditions: HOP-62, 48 h
CCRF-CEM = test: Antiproliferative activity against human CCRF-CEM cells assessed as inhibition of cell growth at 10 uM measured after 48 hrs by SRB assay relative to control; conditions: read-out: GI
MOLT-4 [3] = test: Antiproliferative activity against human MOLT4 cells assessed as inhibition of cell growth measured after 48 hrs by SRB assay; conditions: MOLT-4, 48 h
NCI-H522 [4] = test: Antiproliferative activity against human NCI-H522 cells assessed as inhibition of cell growth measured after 48 hrs by SRB assay; conditions: NCI-H522, 48 h
MDA-MB-468 = test: Antiproliferative activity against human MDA-MB-468 cells assessed as inhibition of cell growth measured after 48 hrs by SRB assay; conditions: MDA-MB-468, 48 h
NCI-H226 = test: Antiproliferative activity against human NCI-H226 cells assessed as inhibition of cell growth measured after 48 hrs by SRB assay; conditions: NCI-H226, 48 h
U-251 = test: Antiproliferative activity against human U251 cells assessed as inhibition of cell growth measured after 48 hrs by SRB assay; conditions: U-251, 48 h

SMILES	GI50 (SNB-19) [µM]	GI50 (K562) [µM]	inhibition of growth at 10 µM (IGROV-1) [%]	inhibition of growth at 10 µM (MOLT-4 [1]) [%]	inhibition of growth at 10 µM (HCT-15) [%]	GI50 (M14) [µM]	inhibition of growth at 10 µM (SW-620) [%]	GI50 (EKVX) [µM]	inhibition of growth at 10 µM (SR) [%]	GI50 (MCF7) [µM]	GI50 (MDA-MB-435) [µM]	inhibition of growth at 10 µM (ACHN) [%]	inhibition of growth at 10 µM (OVCAR-3) [%]	inhibition of growth at 10 µM (SN12C) [%]	GI50 (NCI-H23) [µM]	GI50 (SK-MEL-5) [µM]	inhibition of growth at 10 µM (KM12) [%]	GI50 (786-0) [µM]	inhibition of growth at 10 µM (NCI-H522 [2]) [%]	inhibition of growth at 10 µM (SF-295) [%]	also measured
COc1ccc2nc3c(cc2c1)C(=O)CC(c1ccccc1)C3 (configuration not stated)	2.62	0.344	64.2	82.2	75.2	0.259	82.2	5.92	82.3	3.49	0.137	56.1	107	59.3	6.18	0.54	89.2	4.37	84.6	69	GI50 (BT-549): 2.21 µM; inhibition of growth at 10 µM (A549): 65.2%; inhibition of growth at 10 µM (DU-145): 98.9%; GI50 (NCI-H322M): 5.78 µM; GI50 (LOX IMVI): 0.887 µM; inhibition of growth at 10 µM (COLO 205): 98.1%; GI50 (HT-29): 0.428 µM; GI50 (PC-3): 0.715 µM; inhibition of growth at 10 µM (SNB-75): 109%; GI50 (NCI-H460): 1.71 µM; GI50 (HOP-62): 1.96 µM; inhibition of growth at 10 µM (CCRF-CEM): 89.3%; GI50 (MOLT-4 [3]): 0.431 µM; GI50 (NCI-H522 [4]): 0.471 µM
COc1ccc2nc3c(cc2c1)C(=O)CC(C(F)(F)F)C3 (configuration not stated)	3.61	0.437	63.4	84.7	62.2	0.238	58.5	4.19	83.6	3.42	0.143	50.8	94.7	57.9	5.15	0.411	88.4	6.57	68.1	54.7	GI50 (MDA-MB-468): 1.87 µM; inhibition of growth at 10 µM (A549): 60.7%; inhibition of growth at 10 µM (DU-145): 95.7%; GI50 (NCI-H322M): 1.32 µM; GI50 (LOX IMVI): 3.08 µM; inhibition of growth at 10 µM (COLO 205): 90.9%; GI50 (HT-29): 0.387 µM; GI50 (PC-3): 0.835 µM; inhibition of growth at 10 µM (SNB-75): 92.1%; GI50 (NCI-H460): 2.61 µM; GI50 (HOP-62): 3.61 µM; inhibition of growth at 10 µM (CCRF-CEM): 90.1%; GI50 (MOLT-4 [3]): 0.0882 µM; GI50 (NCI-H522 [4]): 0.582 µM
O=C1CC(c2ccccc2)Cc2nc3c(Br)cc(Br)cc3cc21 (configuration not stated)	0.406	0.0676	84.8	79.2	89.7	0.284	77.6	0.391	80.5	0.382	0.211	70.3	140	60.5	0.26	0.298	98	0.813	91.5	132	GI50 (NCI-H226): 0.241 µM; GI50 (BT-549): 0.541 µM; GI50 (MDA-MB-468): 1.28 µM; inhibition of growth at 10 µM (DU-145): 99%; GI50 (NCI-H322M): 0.0748 µM; GI50 (LOX IMVI): 0.758 µM; inhibition of growth at 10 µM (COLO 205): 148%; GI50 (HT-29): 0.233 µM; GI50 (PC-3): 0.0666 µM; inhibition of growth at 10 µM (SNB-75): 64.8%; GI50 (NCI-H460): 0.0423 µM; GI50 (HOP-62): 0.18 µM; GI50 (U-251): 0.421 µM; GI50 (MOLT-4 [3]): 0.104 µM; GI50 (NCI-H522 [4]): 0.137 µM
O=C1CC(c2ccccc2)Cc2nc3ccc(Br)cc3cc21 (configuration not stated)	0.434	0.175	78	89.5	84	0.0505	74.9	0.756	86.9	2.76	0.0271	65.7	128	67.8	0.616	0.288	91.1	0.784	104	82.8	GI50 (NCI-H226): 2.25 µM; GI50 (BT-549): 0.685 µM; GI50 (MDA-MB-468): 2.84 µM; inhibition of growth at 10 µM (A549): 76.2%; inhibition of growth at 10 µM (DU-145): 103%; GI50 (NCI-H322M): 0.623 µM; GI50 (LOX IMVI): 0.707 µM; inhibition of growth at 10 µM (COLO 205): 136%; GI50 (HT-29): 0.205 µM; GI50 (PC-3): 0.254 µM; inhibition of growth at 10 µM (SNB-75): 63.4%; GI50 (NCI-H460): 0.344 µM; GI50 (HOP-62): 0.354 µM; GI50 (U-251): 0.553 µM; inhibition of growth at 10 µM (CCRF-CEM): 91.5%; GI50 (MOLT-4 [3]): 0.0537 µM; GI50 (NCI-H522 [4]): 0.236 µM
O=C1CC(c2ccccc2)Cc2nc3ccc(Cl)cc3cc21 (configuration not stated)	0.425	0.119	83.5	93.2	86.1	0.038	77	0.607	87	2.55	0.0266	69.2	129	71.8	0.517	0.203	98.3	0.838	97	103	GI50 (NCI-H226): 1.61 µM; GI50 (BT-549): 0.5 µM; GI50 (MDA-MB-468): 2.47 µM; inhibition of growth at 10 µM (A549): 76.7%; inhibition of growth at 10 µM (DU-145): 99.8%; GI50 (NCI-H322M): 0.72 µM; GI50 (LOX IMVI): 0.558 µM; inhibition of growth at 10 µM (COLO 205): 132%; GI50 (HT-29): 0.271 µM; GI50 (PC-3): 0.28 µM; inhibition of growth at 10 µM (SNB-75): 70.3%; GI50 (NCI-H460): 0.345 µM; GI50 (HOP-62): 0.428 µM; GI50 (U-251): 0.729 µM; inhibition of growth at 10 µM (CCRF-CEM): 89.6%; GI50 (MOLT-4 [3]): 0.0675 µM; GI50 (NCI-H522 [4]): 0.314 µM
